In ChEMBL document CHEMBL5465560, “Selectivity Literature for EUbOPEN Chemogenomic Library” (2024):

How the values were obtained:
[1] = target: T1, Serine/threonine-protein kinase LATS2 (Homo sapiens) (UniProt Q9NRM7); test: Selectivity interaction (KinomeScan (DiscoverX)) EUB0000045b LATS2
T1 sequence (whole entry): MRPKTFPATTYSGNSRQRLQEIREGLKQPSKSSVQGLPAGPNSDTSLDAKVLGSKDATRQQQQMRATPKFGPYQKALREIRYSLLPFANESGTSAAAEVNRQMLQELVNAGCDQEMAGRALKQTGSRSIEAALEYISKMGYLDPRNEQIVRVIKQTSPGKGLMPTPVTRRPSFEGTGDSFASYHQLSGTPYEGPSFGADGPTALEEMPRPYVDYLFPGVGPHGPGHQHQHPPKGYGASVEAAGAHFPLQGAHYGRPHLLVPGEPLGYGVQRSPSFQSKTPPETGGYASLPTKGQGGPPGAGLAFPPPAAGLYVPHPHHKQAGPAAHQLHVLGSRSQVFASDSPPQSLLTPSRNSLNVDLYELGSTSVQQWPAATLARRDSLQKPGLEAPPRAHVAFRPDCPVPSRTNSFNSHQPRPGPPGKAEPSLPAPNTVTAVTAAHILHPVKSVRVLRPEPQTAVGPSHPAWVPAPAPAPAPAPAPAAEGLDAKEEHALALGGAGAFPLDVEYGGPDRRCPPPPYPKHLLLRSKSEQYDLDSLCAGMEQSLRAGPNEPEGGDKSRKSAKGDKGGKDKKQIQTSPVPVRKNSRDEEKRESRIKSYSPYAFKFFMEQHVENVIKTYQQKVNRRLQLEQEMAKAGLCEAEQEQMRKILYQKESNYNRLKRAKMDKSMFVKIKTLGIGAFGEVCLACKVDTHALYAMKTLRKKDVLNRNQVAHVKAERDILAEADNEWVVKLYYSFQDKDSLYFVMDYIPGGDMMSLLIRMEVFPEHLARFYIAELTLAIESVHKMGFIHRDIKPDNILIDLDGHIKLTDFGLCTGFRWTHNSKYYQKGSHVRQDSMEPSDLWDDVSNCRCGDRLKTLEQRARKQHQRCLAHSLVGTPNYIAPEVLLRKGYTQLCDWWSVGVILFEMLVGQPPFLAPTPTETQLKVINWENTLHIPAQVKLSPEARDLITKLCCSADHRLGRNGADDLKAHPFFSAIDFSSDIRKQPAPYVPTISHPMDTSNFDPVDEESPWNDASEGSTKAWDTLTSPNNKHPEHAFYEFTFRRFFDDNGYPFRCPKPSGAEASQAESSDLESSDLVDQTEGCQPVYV

[2] = target: T2, Dual specificity tyrosine-phosphorylation-regulated kinase 4 (Homo sapiens) (UniProt Q9NR20); test: Selectivity interaction (Kinase panel (Z-LYTE Assay)) EUB0001632a DYRK4; settings: at 10 µM
T2 sequence (whole entry): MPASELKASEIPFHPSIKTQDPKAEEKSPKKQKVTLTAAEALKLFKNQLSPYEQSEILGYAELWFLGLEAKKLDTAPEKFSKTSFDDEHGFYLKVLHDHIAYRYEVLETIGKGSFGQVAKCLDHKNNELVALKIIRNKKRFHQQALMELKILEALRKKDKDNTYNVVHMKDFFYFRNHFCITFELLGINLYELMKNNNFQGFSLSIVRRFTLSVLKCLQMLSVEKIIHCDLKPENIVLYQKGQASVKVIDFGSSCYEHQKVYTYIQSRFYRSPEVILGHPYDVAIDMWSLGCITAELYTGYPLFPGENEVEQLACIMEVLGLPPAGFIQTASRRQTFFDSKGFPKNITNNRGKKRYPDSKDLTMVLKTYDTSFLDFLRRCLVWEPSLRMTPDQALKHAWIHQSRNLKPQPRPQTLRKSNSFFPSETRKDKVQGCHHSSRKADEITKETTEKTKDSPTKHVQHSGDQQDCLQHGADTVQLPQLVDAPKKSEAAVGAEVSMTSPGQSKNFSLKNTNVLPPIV

[3] = target: Proto-oncogene tyrosine-protein kinase receptor Ret (Homo sapiens, UniProt P07949); test: Selectivity interaction (Kinase screening (Nanosyn)) EUB0000604a RET
[4] = target: Tyrosine-protein kinase Yes (Homo sapiens) (UniProt P07947); test: Selectivity interaction (Millipore kinase profiler) EUB0000124b YES1; settings: at 10 µM
[5] = target: Tyrosine-protein kinase ABL1 (Homo sapiens, UniProt P00519); test: Selectivity interaction (ActivX KiNativ screen (ex vivo kinase selectivity in human PBMCs)) EUB0001619a ABL1; format: cell-based; settings: PBMC, at 1 µM
Chain of Tyrosine-protein kinase ABL1 (P00519 whole entry): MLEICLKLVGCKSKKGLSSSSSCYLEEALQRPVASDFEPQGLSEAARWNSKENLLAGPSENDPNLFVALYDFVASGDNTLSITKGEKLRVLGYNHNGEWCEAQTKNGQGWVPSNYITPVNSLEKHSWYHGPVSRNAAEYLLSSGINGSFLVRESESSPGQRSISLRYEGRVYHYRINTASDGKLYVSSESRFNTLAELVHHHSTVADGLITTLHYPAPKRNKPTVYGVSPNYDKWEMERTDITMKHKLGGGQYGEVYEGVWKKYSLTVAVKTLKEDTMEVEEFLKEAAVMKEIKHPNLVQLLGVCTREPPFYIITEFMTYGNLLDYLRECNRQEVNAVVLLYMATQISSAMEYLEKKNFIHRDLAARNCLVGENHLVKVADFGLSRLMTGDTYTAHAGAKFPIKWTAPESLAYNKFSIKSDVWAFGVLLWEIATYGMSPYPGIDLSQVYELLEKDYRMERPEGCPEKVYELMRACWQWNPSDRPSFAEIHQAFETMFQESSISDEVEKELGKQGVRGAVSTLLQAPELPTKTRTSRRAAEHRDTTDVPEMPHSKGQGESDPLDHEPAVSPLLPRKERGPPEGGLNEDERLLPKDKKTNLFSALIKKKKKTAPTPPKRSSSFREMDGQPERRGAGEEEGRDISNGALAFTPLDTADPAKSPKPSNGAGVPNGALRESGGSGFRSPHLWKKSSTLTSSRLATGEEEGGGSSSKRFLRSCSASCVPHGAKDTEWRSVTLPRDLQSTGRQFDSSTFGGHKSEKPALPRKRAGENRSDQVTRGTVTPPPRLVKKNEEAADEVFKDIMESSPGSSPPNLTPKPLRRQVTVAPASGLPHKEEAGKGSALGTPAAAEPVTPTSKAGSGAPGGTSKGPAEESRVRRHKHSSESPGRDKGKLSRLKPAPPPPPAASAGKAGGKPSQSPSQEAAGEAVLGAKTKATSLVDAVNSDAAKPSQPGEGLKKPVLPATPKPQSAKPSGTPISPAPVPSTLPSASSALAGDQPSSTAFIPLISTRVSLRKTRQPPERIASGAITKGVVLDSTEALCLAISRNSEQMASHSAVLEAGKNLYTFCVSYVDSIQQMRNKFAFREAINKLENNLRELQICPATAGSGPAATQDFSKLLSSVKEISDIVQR

Chain of Tyrosine-protein kinase Yes (Homo sapiens) (P07947 2-543 limits assumed): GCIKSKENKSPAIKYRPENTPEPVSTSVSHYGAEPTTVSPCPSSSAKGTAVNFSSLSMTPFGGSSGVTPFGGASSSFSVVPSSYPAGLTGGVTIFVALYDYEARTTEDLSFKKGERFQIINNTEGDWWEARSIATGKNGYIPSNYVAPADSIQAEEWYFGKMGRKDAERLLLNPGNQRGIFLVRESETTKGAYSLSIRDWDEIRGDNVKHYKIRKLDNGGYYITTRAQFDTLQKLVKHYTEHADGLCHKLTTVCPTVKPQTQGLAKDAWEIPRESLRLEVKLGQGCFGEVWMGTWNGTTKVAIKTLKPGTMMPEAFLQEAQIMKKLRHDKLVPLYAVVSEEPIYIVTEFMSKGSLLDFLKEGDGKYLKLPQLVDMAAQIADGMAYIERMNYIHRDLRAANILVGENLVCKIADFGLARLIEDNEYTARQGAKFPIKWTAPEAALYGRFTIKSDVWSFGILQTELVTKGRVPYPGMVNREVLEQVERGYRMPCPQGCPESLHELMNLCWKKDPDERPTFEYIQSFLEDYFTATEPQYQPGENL
Chain of Proto-oncogene tyrosine-protein kinase receptor Ret (P07949 whole entry): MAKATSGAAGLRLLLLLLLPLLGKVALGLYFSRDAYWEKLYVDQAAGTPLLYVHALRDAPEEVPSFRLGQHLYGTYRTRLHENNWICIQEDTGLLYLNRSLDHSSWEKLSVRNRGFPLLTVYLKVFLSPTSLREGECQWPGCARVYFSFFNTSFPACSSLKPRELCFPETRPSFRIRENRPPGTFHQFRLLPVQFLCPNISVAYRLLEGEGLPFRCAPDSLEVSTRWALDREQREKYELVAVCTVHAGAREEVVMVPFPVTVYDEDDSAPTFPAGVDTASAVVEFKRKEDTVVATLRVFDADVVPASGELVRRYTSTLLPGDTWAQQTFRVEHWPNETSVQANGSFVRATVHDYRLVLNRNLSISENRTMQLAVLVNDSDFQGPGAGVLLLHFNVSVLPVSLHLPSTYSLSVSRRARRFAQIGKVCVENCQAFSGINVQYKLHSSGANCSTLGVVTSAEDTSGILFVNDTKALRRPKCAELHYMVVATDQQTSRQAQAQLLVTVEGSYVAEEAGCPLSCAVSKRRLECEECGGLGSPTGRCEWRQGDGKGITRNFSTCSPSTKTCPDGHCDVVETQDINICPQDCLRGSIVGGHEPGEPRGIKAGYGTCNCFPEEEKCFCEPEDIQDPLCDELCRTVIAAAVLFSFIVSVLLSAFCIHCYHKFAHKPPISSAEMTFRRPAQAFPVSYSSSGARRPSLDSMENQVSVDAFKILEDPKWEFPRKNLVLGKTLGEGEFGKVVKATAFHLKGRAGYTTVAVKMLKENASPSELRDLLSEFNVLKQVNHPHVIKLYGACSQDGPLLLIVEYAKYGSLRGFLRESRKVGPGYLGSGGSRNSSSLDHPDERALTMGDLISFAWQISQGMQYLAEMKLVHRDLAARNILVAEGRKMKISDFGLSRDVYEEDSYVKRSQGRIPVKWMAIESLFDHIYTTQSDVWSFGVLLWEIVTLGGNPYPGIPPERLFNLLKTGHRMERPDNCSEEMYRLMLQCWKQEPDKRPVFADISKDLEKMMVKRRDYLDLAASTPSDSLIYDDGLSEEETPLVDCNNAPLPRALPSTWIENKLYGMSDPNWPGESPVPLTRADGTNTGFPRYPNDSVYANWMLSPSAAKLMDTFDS

C=CC(=O)Nc1cc(-n2c(=O)ccc3cnc4ccc(-c5ccc(NS(C)(=O)=O)cc5)cc4c32)ccc1C
% of control ([1]; at 1 µM): 100%
% of control ([1]; at 10 µM): 81%

Cn1cc(-n2cnc3c(NCc4nc5cc(Cl)c(Cl)cc5[nH]4)nc(N4CCOCC4)nc32)cn1
% of control [2]: 0.0605%

Cc1cnc(Nc2ccc(F)cc2Cl)nc1-c1c[nH]c(C(=O)N[C@H](CO)c2cccc(Cl)c2)c1
% of inhibition [3]: 3%

CC(=O)Nc1cccc(-n2c(=O)n(C3CC3)c(=O)c3c(Nc4ccc(I)cc4F)n(C)c(=O)c(C)c32)c1
% of control [4]: 104%

N#Cc1cccc(-c2c[nH]c3ncnc(N4CCOCC4)c23)c1
% of inhibition [5]: -53%
